Key:
[1] = 298.15 K; 101.33 kPa; Liquid
[2] = xn = mol fraction of the nth substance listed; settings: 298.15 K, 101 kPa, Liquid

CN1CCOCC1 [N-methylmorpholine]
Settings | mass density [kg/m3]
[1] | 914.06

CN1CCOCC1 [N-methylmorpholine] + CCCCCCCCO
[2]
Settings | mass density [kg/m3]
x1 = 0.0461 | 823.88
x1 = 0.1101 | 827.55
x1 = 0.1862 | 832.09
x1 = 0.2381 | 835.33
x1 = 0.2848 | 838.58
x1 = 0.3484 | 843.06
x1 = 0.4029 | 846.99
x1 = 0.4899 | 853.86
x1 = 0.5121 | 855.92
x1 = 0.6012 | 863.81
x1 = 0.6547 | 869.5
x1 = 0.7213 | 875.97
x1 = 0.7831 | 883.26
x1 = 0.8353 | 889.72
x1 = 0.8958 | 897.82
x1 = 0.9541 | 905.92
x1 = 0.9792 | 909.72

CN1CCOCC1 [N-methylmorpholine] + CCCCCCO
[2]
Settings | mass density [kg/m3]
x1 = 0.0459 | 818.34
x1 = 0.1098 | 823.37
x1 = 0.1852 | 829.49
x1 = 0.2377 | 833.69
x1 = 0.2855 | 837.76
x1 = 0.3495 | 843.34
x1 = 0.4034 | 848.09
x1 = 0.4887 | 855.97
x1 = 0.5129 | 858.26
x1 = 0.5998 | 866.75
x1 = 0.6583 | 872.76
x1 = 0.7174 | 879.14
x1 = 0.7844 | 886.51
x1 = 0.8341 | 892.31
x1 = 0.8964 | 899.75
x1 = 0.9538 | 907.13
x1 = 0.9784 | 910.69

CN1CCOCC1 [N-methylmorpholine] + CCCCCO
[2]
Settings | mass density [kg/m3]
x1 = 0.0487 | 813.72
x1 = 0.1129 | 820.02
x1 = 0.1766 | 826.08
x1 = 0.2412 | 832.41
x1 = 0.2801 | 836.23
x1 = 0.3998 | 847.87
x1 = 0.4612 | 854.03
x1 = 0.5826 | 866.38
x1 = 0.6444 | 872.93
x1 = 0.7267 | 881.91
x1 = 0.7801 | 887.89
x1 = 0.8226 | 892.69
x1 = 0.8811 | 899.57
x1 = 0.9428 | 907.1
x1 = 0.9854 | 912.11

CN1CCOCC1 [N-methylmorpholine] + CCCCO
[2]
Settings | mass density [kg/m3]
x1 = 0.0455 | 811.49
x1 = 0.1089 | 818.95
x1 = 0.1675 | 825.55
x1 = 0.2399 | 833.8
x1 = 0.2811 | 838.33
x1 = 0.3494 | 845.7
x1 = 0.3985 | 850.99
x1 = 0.4533 | 856.71
x1 = 0.5285 | 864.54
x1 = 0.6444 | 876.67
x1 = 0.7198 | 885.45
x1 = 0.7865 | 891.47
x1 = 0.8237 | 895.31
x1 = 0.8843 | 901.73
x1 = 0.9411 | 907.87
x1 = 0.9801 | 912

CN1CCOCC1 [N-methylmorpholine] + CCCO
[2]
Settings | mass density [kg/m3]
x1 = 0.0237 | 803.87
x1 = 0.1003 | 816.55
x1 = 0.1657 | 826.67
x1 = 0.2336 | 836.52
x1 = 0.2812 | 843.01
x1 = 0.3458 | 851.12
x1 = 0.3988 | 857.14
x1 = 0.4476 | 861.99
x1 = 0.5784 | 874.68
x1 = 0.6347 | 879.93
x1 = 0.7195 | 888.06
x1 = 0.7684 | 892.76
x1 = 0.8327 | 898.56
x1 = 0.8674 | 901.93
x1 = 0.9443 | 908.83
x1 = 0.9878 | 912.75

CN1CCOCC1 [N-methylmorpholine] + CCO
[2]
Settings | mass density [kg/m3]
x1 = 0.0511 | 797.55
x1 = 0.1166 | 812.41
x1 = 0.1795 | 825.38
x1 = 0.2438 | 837.23
x1 = 0.2795 | 843.43
x1 = 0.3532 | 854.69
x1 = 0.4021 | 861.24
x1 = 0.4573 | 867.56
x1 = 0.4982 | 871.73
x1 = 0.5342 | 875.35
x1 = 0.5832 | 879.41
x1 = 0.6432 | 884.36
x1 = 0.7234 | 890.96
x1 = 0.7786 | 895.53
x1 = 0.8216 | 899.13
x1 = 0.8794 | 904.05
x1 = 0.9432 | 909.42
x1 = 0.9832 | 912.63

CCCCO [butan-1-ol]
Settings | mass density [kg/m3]
[1] | 805.92

CCO [ethanol]
Settings | mass density [kg/m3]
[1] | 784.94

CCCCCCO [hexan-1-ol]
Settings | mass density [kg/m3]
[1] | 814.95

CCCCCCCCO [octan-1-ol]
Settings | mass density [kg/m3]
[1] | 821.65

CCCCCO [pentan-1-ol]
Settings | mass density [kg/m3]
[1] | 810.83

CCCO [propan-1-ol]
Settings | mass density [kg/m3]
[1] | 799.52
